Data reported in patent publication US20150352137A1, “THYMIDINE FOR PREVENTING NEURAL TUBE DEFECTS” (priority 2012, published 2015).

Assays:
[1] = test system: curly tail (ct/ct) embryos; experiment: Frequency of spina bifida, tail flexion defects and straight tails in curly tail embryos after maternal supplementation; type: in vivo, mouse; settings: for frequency of spina bifida compared with controls: maternal i.p. 20 mg/kg each reagent daily E7.5-10.5, embryos scored E11.5-13.5; for frequency of spina bifida compared with controls / frequency of straight-tailed (unaffected) embryos compared with controls: z-test; for frequency of straight-tailed (unaffected) embryos compared with controls: all embryos
Excerpt: The curly tail (ct) mouse is considered a useful model for NTDs owing to a number of characteristics that resemble the corresponding defects in humans. These include a multifactorial etiology (with effects of both genetic and environmental factors), location of spina bifida lesions at the lumbosacral level, the presence of elevated alpha-fetoprotein in the amniotic fluid and a female excess among exencephalic embryos. […] The closure defects in ct/ct embryos are a mechanical consequence of excessive ventral curvature of the caudal region of the embryo. This, in turn, results from a dorso-ventral growth imbalance caused by a diminished cellular proliferation rate in the hindgut endoderm. In addition to spina bifida, cranial NTDs (exencephaly) also occur at low frequency among curly tail embryos (approximately 5%), but the cellular basis for these defects is not known. Curly tail mice were maintained as a closed random-bred colony as described in Van […] et al (Anat Embryol 2001 203: 225-237). […] Any resorptions were recorded. Crown-rump length was measured using an eyepiece graticule. Statistical analysis was carried out using SigmaStat (version 3.5; Systat Software Inc). Proportions were compared by z-test. Comparisons of mean values were made by […] or by One Way ANOVA with pairwise analysis by Holm-Sidak test. Embryos removed from pregnant females at E11.5-13.5 were scored for the outcome of low spinal neurulation as: normal (ST, straight tail), tail flexion defect (CT, curled tail), or open spina bifida which was always associated with a tail flexion defect (SB plus CT). Tail flexion defects arise when closure of the neural tube is delayed but does ultimately occur.

curly tail mice = settings: female, mouse, in vivo
Protocol: Experimental litters were generated by overnight mating with the day of finding a copulation plug designated embryonic day (E) 0.5. Maternal supplementation was performed daily from E7.5-10.5.
Treatments were: control (water only), thymidine+adenine, thymidine+hypoxanthine, thymidine+GMP, thymidine only, adenine only (all reagents from Sigma). GMP was used instead of guanine owing to solubility considerations in preparing solutions for injection. Animal studies were carried out under regulations of the Animals (Scientific Procedures) Act 1986 of the UK Government, and in according with guidance issued by the Medical Research Council, UK in Responsibility in the Use of Animals for Medical Research (July 1993).
Collection of Embryos Litters were dissected from the uterus, at E11.5-13.5, in Dulbecco's Modified Eagle's Medium containing 10% fetal calf serum and assessed for presence of neural tube defects (NTDs) under a light microscope. Any resorptions were recorded. Crown-rump length was measured using an eyepiece graticule.
In order to evaluate potential effects of treatment on litter size or embryonic viability, the number of embryos in each litter was recorded together with the presence of dead or resorbed embryos.

curly tail embryos = experiment: Frequency of exencephaly (cranial NTDs) among curly tail embryos after maternal supplementation; type: in vivo, mouse; settings: maternal i.p. 20 mg/kg each reagent daily E7.5-10.5; controls 6.8%
Protocol: The closure defects in ct/ct embryos are a mechanical consequence of excessive ventral curvature of the caudal region of the embryo. This, in turn, results from a dorso-ventral growth imbalance caused by a diminished cellular proliferation rate in the hindgut endoderm. In addition to spina bifida, cranial NTDs (exencephaly) also occur at low frequency among curly tail embryos (approximately 5%), but the cellular basis for these defects is not known. […] Any resorptions were recorded. Crown-rump length was measured using an eyepiece graticule. The frequency of exencephaly (cranial NTDs) among genetically predisposed curly tail embryos was also assessed. The frequency of exencephaly was 6.8% among embryos from control litters. There was a trend towards diminished frequency of exencephaly among embryos treated with thymidine and adenine, thymidine and GMP, or thymidine only, compared with controls (3.0%, 2.5% and 2.7% respectively, see FIG. 4).

genomic DNA = experiment: Incorporation of tritiated nucleotide precursors into genomic DNA in embryo culture; parameters: species or system mouse; settings: embryos cultured E9.5-10.5, mean ± SEM, n = 3
Protocol: Embryos were explanted at E9.5 and cultured for 24 hours in rat serum as described previously (Cockroft, In: Copp […], editors. Postimplantation Mammalian Embryos: A Practical Approach. Oxford: […] DNA concentration was determined by NanoDrop.

ct/ct embryos = settings: supplementation; cited from earlier work
neural tube defects = settings: cited from earlier work

Nc1ncnc2nc[nH]c12 [Ade only, adenine]
frequency of spina bifida compared with controls [1]: no effect
Mean litter size (curly tail mice): 7.5 ± 0.7
Resorption per litter (curly tail mice): 0.8 ± 0.3

Cc1cn([C@H]2C[C@H](O)[C@@H](CO)O2)c(=O)[nH]c1=O [Thy only, thymidine]
frequency of exencephaly (curly tail embryos): 2.7%
frequency of straight-tailed (unaffected) embryos compared with controls ([1]; listed as Thy): significantly higher
frequency of straight-tailed (unaffected) embryos compared with controls ([1]; listed as thymidine only): higher frequency
proportion of unaffected, straight tail embryos within litter compared with controls ([1]; litter-by-litter analysis, One Way ANOVA): not statistically significant
frequency of spina bifida compared with controls ([1]; 20 mg/kg): trend towards reduced spina bifida frequency
frequency of spina bifida compared with controls ([1]; listed as thymidine alone, 20 mg/kg): trend towards reduced frequency
Mean litter size (curly tail mice): 7.4 ± 0.8
Resorption per litter (curly tail mice): 0.9 ± 0.4

Nc1ncnc2nc[nH]c12 [[^3H]-adenine]
[^3H] incorporation into genomic DNA (genomic DNA; 37,000 Bq/ml, 0.036 nmol/ml): 40.0 ± 6.6 cpm/μg
[^3H] incorporation into genomic DNA (genomic DNA; 74,000 Bq/ml, 0.07 nmol/ml): 82.8 ± 6.7 cpm/μg

Cc1cn([C@H]2C[C@H](O)[C@@H](CO)O2)c(=O)[nH]c1=O [[^3H]-thymidine]
[^3H] incorporation into genomic DNA (genomic DNA; 37,000 Bq/ml, 0.07 nmol/ml): 898.4 ± 98.0 cpm/μg

Nc1nc2ncc(CNc3ccc(C(=O)N[C@@H](CCC(=O)O)C(=O)O)cc3)nc2c(=O)[nH]1 [folic acid]
prevention of NTDs in ct/ct embryos (ct/ct embryos): not preventable
reduction of NTD recurrence risk (neural tube defects; 5 mg/day, women with a previous affected pregnancy): ~70%
reduction in the prevalence of NTDs (neural tube defects; USA, fortification of bread flour): 26%
NTDs not preventable by maternal treatment (neural tube defects; human, in vivo): 30-50%
NTD recurrences prevented (neural tube defects; randomised clinical trials, administered early in pregnancy): up to 70%
